# Source: PubChem BioAssay (NCI)
# Values joined by “and” are separate entries in the source; they are usually repeats but may differ in a detail not shown here. Equal entries are not always repeated.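 In this assay, cells in 96-well plates receive the compound at five concentrations for 48 hours. Endpoints are linearly interpolated between the surrounding concentrations. GI50 is the concentration that inhibits growth by half. At the TGI there is no net growth.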
# Assays:
# Assay in all cases: DTP human tumour cell line panel, 48 h
# DU-145 prostate = test system: DU-145 prostate
# PC-3 prostate = test system: PC-3 prostate
# COLO 205 colon = test system: COLO 205 colon
# NCI-H226 lung = test system: NCI-H226 lung
# SR leukemia = test system: SR leukemia
# UO-31 renal = test system: UO-31 renal
# K-562 leukemia = test system: K-562 leukemia
# OVCAR-8 ovarian = test system: OVCAR-8 ovarian
# LOX IMVI melanoma = test system: LOX IMVI melanoma
# SN12C renal = test system: SN12C renal
Structure (SMILES),GI50 (DU-145 prostate),TGI (DU-145 prostate),GI50 (PC-3 prostate),TGI (PC-3 prostate),GI50 (COLO 205 colon),TGI (COLO 205 colon),GI50 (NCI-H226 lung),TGI (NCI-H226 lung),GI50 (SR leukemia),TGI (SR leukemia),GI50 (UO-31 renal),TGI (UO-31 renal),GI50 (K-562 leukemia),TGI (K-562 leukemia),GI50 (OVCAR-8 ovarian),TGI (OVCAR-8 ovarian),GI50 (LOX IMVI melanoma),TGI (LOX IMVI melanoma),GI50 (SN12C renal),TGI (SN12C renal)
CC(=O)O.CC(=O)O.CC(=O)O.CC(=O)O.[Rh].[Rh],47.9 µM,> 100 µM,27.1 µM,91 µM,7.3 µM,30.1 µM,22 µM,99.2 µM,21.1 µM,40.2 µM,20.6 µM,59 µM,18.5 µM,56.2 µM,27.6 µM,> 100 µM,17.2 µM,61.9 µM,40.3 µM,> 100 µM
Cn1nnc2c(C(N)=O)ncn2c1=O,,> 100 µM,,> 100 µM,,> 100 µM,,> 100 µM,,> 100 µM,,> 100 µM,,> 100 µM,,> 100 µM,,> 100 µM,,> 100 µM
Oc1c(Cl)cc(Cl)c2cccnc12,4.51 µM,45.7 µM,3.94 µM,> 100 µM,3.43 µM,13.4 µM,3.15 µM,14.7 µM,2.68 µM,9.48 µM,2.5 µM,9.31 µM,3.77 µM,> 100 µM,2.75 µM,54.6 µM,2.18 µM,15.7 µM,3.39 µM,51.8 µM
OCc1ccc(N2CCCC2)cc1Cl,34.4 µM,> 100 µM,> 84.7 µM,> 100 µM,2.01 µM,5.11 µM,0.146 µM,0.365 µM,46.2 µM,> 100 µM,17.2 µM,50 µM,8.18 µM,> 100 µM,46 µM,> 100 µM,> 86.9 µM,> 100 µM,47.6 µM,> 100 µM
Nc1ncccc1-c1nc2ccc(-c3ccccc3)nc2n1-c1ccc(C2(N)CCC2)cc1,2.98 µM,15 µM,0.0533 µM,3.39 µM,0.422 µM,2.14 µM,5.02 µM,23.7 µM,1.74 µM,4.75 µM,0.278 µM,2.03 µM,1.89 µM,4.5 µM,2.06 µM,6.24 µM,1.37 µM,2.77 µM,2.29 µM,13.5 µM
O=c1c(O)cccn1CCCN(CCCn1cccc(O)c1=O)CCn1cccc(O)c1=O,20.1 µM,> 100 µM,> 100 µM,> 100 µM,21.6 µM,> 100 µM,2.27 µM,61.8 µM,0.522 µM,> 100 µM,7.6 µM,> 100 µM,3.97 µM,> 100 µM,2.26 µM,> 100 µM,2.13 µM,> 100 µM,3.41 µM,> 100 µM
CCN1C(=O)N(CC)C2C1NN=c1s/c(=C\c3ccc[nH]3)c(=O)n12 (stereo not drawn),0.496 µM,> 100 µM,0.372 µM,> 100 µM,0.349 µM,1.82 µM,,> 100 µM,0.148 µM,> 38.2 µM,0.719 µM,> 100 µM,0.245 µM,> 100 µM,0.85 µM,> 100 µM,0.578 µM,> 100 µM,0.991 µM,> 100 µM
Brc1cccc(-c2cc(-c3ccc4nccnc4c3)[nH]n2)c1,1.09 µM,> 200 µM,0.68 µM,> 250 µM,0.286 µM,3.93 µM,,> 250 µM,0.139 µM,> 104 µM,1.9 µM,> 250 µM,0.215 µM,> 250 µM,1.39 µM,> 250 µM,1.42 µM,> 250 µM,1.39 µM,> 250 µM
CCN(CC)CCCC(C)Nc1c(-c2ccccc2)cnc2cc(Cl)ccc12 (stereo not drawn),13 µM,31.3 µM,14.9 µM,60.4 µM,1.6 µM,3.23 µM,15.7 µM,31.6 µM,3.14 µM,> 24.6 µM,1.12 µM,8.83 µM,3.2 µM,32 µM,11.9 µM,32.3 µM,2.2 µM,5.84 µM,8.9 µM,36.5 µM
Nc1n[nH]c2ccc([C@@H]3Nc4cc5[nH]ncc5cc4[C@H]4C5CCC(C5)[C@@H]34)cc12 (stereo partly drawn),0.391 µM,> 100 µM,0.365 µM,> 41.9 µM,0.424 µM,> 40.6 µM,1.17 µM,46.2 µM,0.564 µM,> 100 µM,0.626 µM,> 100 µM,0.315 µM,> 100 µM,0.511 µM,> 100 µM,0.659 µM,74.8 µM,0.525 µM,> 82.9 µM
O=C1/C(=C/c2cccc(Br)c2)COc2ccc(O)c(O)c21,1.42 µM,2.99 µM,0.79 µM,3.45 µM,1.54 µM,3 µM,2.4 µM,6.81 µM,0.349 µM,2.81 µM,0.958 µM,2.14 µM,0.387 µM,20.7 µM,1.06 µM,2.86 µM,0.658 µM,2.04 µM,1.2 µM,3.04 µM
CCSc1nc(N)c(C#N)c(-c2ccco2)c1C#N,42.6 µM,> 100 µM,22.3 µM,> 100 µM,30.2 µM,> 100 µM,29.9 µM,> 100 µM,20.2 µM,> 100 µM,56.1 µM,> 100 µM,43.7 µM,> 100 µM,53.6 µM,> 100 µM,17.1 µM,37.1 µM,> 100 µM,> 100 µM
COc1cc(/C=C/[N+](=O)[O-])cc(OC)c1OC,2.69 µM,6.31 µM,3.25 µM,10.6 µM,1.7 µM,3.33 µM,2.1 µM,5.5 µM,3.36 µM,12.5 µM,2.05 µM,3.91 µM,2.81 µM,> 100 µM,3.04 µM,12.1 µM,1.39 µM,2.91 µM,2.51 µM,9.26 µM
C[C@@H]1COCCN1c1cc(-c2ccnn2C)c2ccnc(-c3ccn[nH]3)c2n1,0.0992 µM and 0.202 µM,> 100 µM,0.275 µM and 0.454 µM,> 100 µM,0.28 µM and 0.573 µM,5.7 µM and > 23.4 µM,0.241 µM and 0.474 µM,,0.0241 µM and 0.103 µM,,0.0741 µM and 0.152 µM,0.792 µM and 1.92 µM,0.0844 µM and 0.384 µM,> 100 µM,0.17 µM and 0.415 µM,,0.0572 µM and 0.118 µM,0.421 µM and 1.51 µM,0.184 µM and 0.314 µM,> 100 µM
C[C@H]1c2ccccc2CN1CCCOc1cc2c(cc1OCC1CC1)C1(CCCC1)C(N)=N2,2.66 µM,8.63 µM,1.69 µM,7.6 µM,0.842 µM,1.68 µM,1.02 µM,2.9 µM,1.15 µM,2.87 µM,1.02 µM,3.04 µM,0.871 µM,2.46 µM,2.38 µM,8.83 µM,0.845 µM,1.57 µM,2.59 µM,9.18 µM
O=C1CCC(N2C(=O)c3cccc(NCCCC4CCN(CCNC(=O)c5cc6c(o5)C(=O)c5ccccc5C6=O)CC4)c3C2=O)C(=O)N1 (stereo not drawn),0.185 µM,0.344 µM,0.976 µM,> 76.4 µM,0.266 µM,0.808 µM,1.42 µM,3.76 µM,0.106 µM,> 30.1 µM,1.37 µM,2.91 µM,0.654 µM,6.3 µM,1.41 µM,7.18 µM,0.288 µM,1.13 µM,0.252 µM,0.806 µM
CN(c1ccc(C#N)c(Cl)c1)C1CCC(NC(=O)c2ccc(N3CCN(C4CN(c5ccc6c(c5)C(=O)N(C5CCC(=O)NC5=O)C6=O)C4)CC3)cc2)CC1 (stereo not drawn),> 100 µM,> 100 µM,> 100 µM,> 100 µM,> 100 µM,> 100 µM,> 100 µM,> 100 µM,> 100 µM,> 100 µM,> 100 µM,> 100 µM,> 100 µM,> 100 µM,> 100 µM,> 100 µM,> 100 µM,> 100 µM,> 100 µM,> 100 µM
CCN(CC)C(=S)SSC(=S)N(CC)CC,24.5 µM and 31.7 µM,> 59.8 µM and 133 µM,15.7 µM and 23.2 µM,41.2 µM and 72 µM,17 µM and 15.4 µM,31.8 µM and 30.1 µM,27.6 µM and 82 µM,> 58.7 µM and 307 µM,0.785 µM,34.4 µM,15.6 µM and 19.7 µM,31.9 µM and 49 µM,25.2 µM and 19.6 µM,51.5 µM and 47.3 µM,18.8 µM and 15.8 µM,50.7 µM and 33.5 µM,14.4 µM and 12.8 µM,31.2 µM and 29.9 µM,15 µM and 15.5 µM,29.3 µM and 31.9 µM
NS(=O)(=O)c1cccc(-c2ccc3c(NC(=O)C4CC4)n[nH]c3c2)c1,14.7 µM,> 25 µM,15.6 µM,> 25 µM,> 14.5 µM,> 22.9 µM,> 15.1 µM,> 25 µM,3.59 µM,> 25 µM,> 25 µM,> 25 µM,8.38 µM,> 25 µM,24.3 µM,> 25 µM,19.4 µM,> 25 µM,> 21.1 µM,> 25 µM
C=CCn1c(=O)c2cnc(Nc3ccc(N4CCN(C)CC4)cc3)nc2n1-c1cccc(C(C)(C)O)n1,0.872 µM and 0.678 µM,18 µM and > 10 µM,1.41 µM and 1.06 µM,> 65.6 µM,0.311 µM and 0.623 µM,2.41 µM and > 6.7 µM,0.456 µM and 1.9 µM,5.95 µM and > 7.68 µM,0.269 µM and 0.253 µM,1.67 µM and 2.07 µM,0.338 µM and 0.28 µM,7.47 µM and > 10 µM,0.315 µM and 0.282 µM,17.8 µM and > 7.64 µM,0.417 µM and 0.526 µM,2.91 µM and > 7.79 µM,0.433 µM and 0.537 µM,6.06 µM and > 7.93 µM,0.855 µM and 0.479 µM,> 100 µM
CCN(CC)C(=O)COc1cc2c(O)c3c(O)c(C)c4c(c13)C(=O)C(C)(OC=CC(OC)C(C)C(OC(C)=O)C(C)C(O)C(C)C(O)C(C)C=CC=C(C)C(=O)N2)O4 (stereo not drawn),,> 100 µM,,> 100 µM,,,,> 100 µM,,> 100 µM,,> 100 µM,,> 100 µM,,> 100 µM,,> 100 µM,,> 100 µM
COc1ccc2c(c1)C(=O)c1c-2n(CCCN)c(=O)c2cc([N+](=O)[O-])ccc12,< 0.01 µM,0.0193 µM,< 0.01 µM,1.79 µM,,,< 0.01 µM,< 0.01 µM,< 0.01 µM,< 0.01 µM,< 0.01 µM,0.0172 µM,< 0.01 µM,1.31 µM,,,< 0.01 µM,< 0.01 µM,< 0.01 µM,< 0.01 µM
O=C1CSC(c2ccccc2O)N1c1nnc(Cn2ccnc2)o1 (stereo not drawn),17.5 µM,56.6 µM,6.2 µM,30.4 µM,12.9 µM,45.7 µM,37.2 µM,> 100 µM,2.93 µM,> 100 µM,4.35 µM,> 100 µM,4.36 µM,> 100 µM,17.8 µM,> 100 µM,6.58 µM,24.8 µM,12.8 µM,> 100 µM
CCOC1OC(=O)[C@H]2[C@@H]1[C@@H]1CC[C@H]2O1 (stereo partly drawn),> 100 µM,> 100 µM,> 100 µM,> 100 µM,7.96 µM,> 19.8 µM,> 100 µM,> 100 µM,33.8 µM,> 100 µM,> 100 µM,> 100 µM,> 100 µM,> 100 µM,> 100 µM,> 100 µM,> 100 µM,> 100 µM,> 100 µM,> 100 µM
NNc1c2ccccc2nc2ccccc12,10.9 µM,> 100 µM,2.34 µM,37.3 µM,4.63 µM,18.3 µM,4.26 µM,43 µM,3.4 µM,19.8 µM,2.76 µM,19.5 µM,3.32 µM,64.7 µM,5.09 µM,30.7 µM,3.62 µM,22.4 µM,6.44 µM,56.7 µM
COc1cc(C2CC(=O)Nc3c2cc(Br)c2ccccc32)cc(Br)c1OC (stereo not drawn),6.38 µM,> 100 µM,2.62 µM,> 100 µM,2.06 µM,> 100 µM,2.34 µM,5.57 µM,0.416 µM,1.77 µM,,,0.493 µM,20.5 µM,1.74 µM,> 100 µM,1.65 µM,> 100 µM,2.54 µM,> 100 µM
